Where two headings read alike, the source gives them in different places.
Assays:
HLA-E*01:03 = HLA-E*01:03 (Homo sapiens, UniProt P13747); type: binding; conditions: tested at least two times, median, Figure 1
NKG2A/CD94 [1] = target: T1, NKG2A/CD94 (Homo sapiens, UniProt P26715+Q13241); type: binding
TCR KK50.4 [2] = assay: HLA-E*01:03 tetramer (TM) staining of TCR KK50.4 transduced Jurkat cells; conditions: for Interaction of thermal exchanged HLA-E TM/peptide complex with TCR KK50.4, in words: thermal exchanged HLA-E*01:03 TM staining on Jurkat TCR KK50.4 cells, tested once, Figure 2C
TCR 6 = assay: HLA-E*01:03 tetramer (TM) staining of TCR 6 transduced Jurkat cells; conditions: for Interaction of thermal exchanged HLA-E TM/peptide complex with TCR 6, in words: thermal exchanged HLA-E*01:03 TM staining on Jurkat TCR 6 cells, tested once, Figure 2C-E
primary NKG2C+ NK cells = conditions: stimulation with HLA-E/peptide presenting cells, compared to other position 8 variants from clinical CMV isolates; cited from earlier work
NKG2A/CD94 [3] = target: T1, NKG2A/CD94; conditions: cited from earlier work
TCR KK50.4 [4] = type: cell-based; conditions: 100 μM peptide, median, n=3 with two technical replicates, Figure 3B, C
[5] = S/P relative to positive control […] or […]
[6] = conventional HLA-E TMs folded with wildtype peptide, Figure 2B
[7] = UV exchange 1 hr at 4°C, ELISA absorbance 450 nm

T1 sequence (P26715 whole entry): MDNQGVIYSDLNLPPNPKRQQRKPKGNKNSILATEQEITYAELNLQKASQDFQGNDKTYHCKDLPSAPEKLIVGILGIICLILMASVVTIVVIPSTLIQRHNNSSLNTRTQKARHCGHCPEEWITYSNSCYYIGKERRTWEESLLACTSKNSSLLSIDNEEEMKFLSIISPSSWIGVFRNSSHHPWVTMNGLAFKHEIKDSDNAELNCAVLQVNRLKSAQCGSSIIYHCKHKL
T1 sequence (Q13241 whole entry): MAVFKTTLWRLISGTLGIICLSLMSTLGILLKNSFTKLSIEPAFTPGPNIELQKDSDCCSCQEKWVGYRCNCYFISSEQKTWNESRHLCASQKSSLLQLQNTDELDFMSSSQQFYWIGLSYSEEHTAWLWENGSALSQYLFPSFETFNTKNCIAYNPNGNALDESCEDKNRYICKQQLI

For VLAPRDLLL [VLAPRTLLL Asp 6], the “Peptide binding affinity for HLA-E*01:03 (signal to positive, S/P, ratio), in words” value (HLA-E*01:03; [5]) was “could not bind”.
For VLAPRPLLL [VLAPRTLLL Pro 6], the “Peptide binding affinity for HLA-E*01:03 (signal to positive, S/P, ratio), in words” value (HLA-E*01:03; [5]) was “strong binders (key: The S/P thresholds to define binders or strong binders are 0.08 and 0.18, respectively; The S/P thresholds to define binders or strong binders are 0.08 and 0.18, respectively)”.
With VLAPRRLLL [VLAPRTLLL Arg 6] the “Peptide binding affinity for HLA-E*01:03 (signal to positive, S/P, ratio), in words” value (HLA-E*01:03; [5]) was “could not bind”.
For VLAPRTDLL [VLAPRTLLL Asp 7], the “Peptide binding affinity for HLA-E*01:03 (signal to positive, S/P, ratio), in words” value (HLA-E*01:03; [5]) was “could not bind”.
In the case of VLAPRTLGL [VLAPRTLLL Gly 8], the “Peptide binding affinity for HLA-E*01:03 (signal to positive, S/P, ratio), in words” value (HLA-E*01:03; [5]) was “could not bind”.
In the case of VLAPRTLLA [VLAPRTLLL Ala 9], the “Peptide binding affinity for HLA-E*01:03 (signal to positive, S/P, ratio), in words” value (HLA-E*01:03; [5]) was “could not bind”.
In the case of VLAPRTLLL [reference compound], the “Interaction of conventional HLA-E TM with NKG2A/CD94, in words” value (NKG2A/CD94 [1]) was “can interact”, the “Interaction of conventional HLA-E TM with TCR KK50.4, in words” value (TCR KK50.4 [2]; [6]) was “could only interact with the HLA-E/[…] complex” and the “Interaction of conventional HLA-E TM with TCR 6, in words” value (TCR 6; [6]) was “can interact”. The “Peptide binding affinity for HLA-E*01:03 (signal to positive, S/P, ratio), in words” value (HLA-E*01:03; [5]) was “high affinity”.
With VLAPRTPLL [VLAPRTLLL Pro 7] the “Peptide binding affinity for HLA-E*01:03 (signal to positive, S/P, ratio), in words” value (HLA-E*01:03; [5]) was “strong binders (key: The S/P thresholds to define binders or strong binders are 0.08 and 0.18, respectively; The S/P thresholds to define binders or strong binders are 0.08 and 0.18, respectively)”.
With VLAPRTRLL [VLAPRTLLL Arg 7] the “Peptide binding affinity for HLA-E*01:03 (signal to positive, S/P, ratio), in words” value (HLA-E*01:03; [5]) was “could not bind”.
With VMAARTLIL the “Interaction of thermal exchanged HLA-E TM/peptide complex with TCR KK50.4, in words” value (TCR KK50.4 [2]) was “interacted”.
With VMAPRALIL the “Interaction of thermal exchanged HLA-E TM/peptide complex with TCR 6, in words” value (TCR 6) was “interacted”.
In the case of VMAPRPLIL, the “Interaction of thermal exchanged HLA-E TM/peptide complex with TCR 6, in words” value (TCR 6) was “interacted” and the “Peptide binding affinity for HLA-E*01:03 (signal to positive, S/P, ratio), in words” value (HLA-E*01:03; [7]) was “strong binders (The S/P thresholds to define binders or strong binders are 0.08 and 0.18, respectively)”.
In the case of VMAPRTLFL, the “CD107a expression and cytokine secretion of primary NKG2C+ NK cells” value (primary NKG2C+ NK cells) is given as “highest level of CD107a expression and cytokine secretion” and the “Level of NKG2A/CD94 signaling among VL9-peptides” value (NKG2A/CD94 [3]) is given as “highest level of NKG2A/CD94 signaling”.
With VMAPRTLIF the “TCR KK50.4 triple reporter activation, in words” value (TCR KK50.4 [4]) was “still induced TCR KK50.4 activation”.
For VMAPRTLIW, the “Interaction of thermal exchanged HLA-E TM/peptide complex with TCR KK50.4, in words” value (TCR KK50.4 [2]) was “recognized by TCR KK50.4” and the “Interaction of thermal exchanged HLA-E TM/peptide complex with TCR 6, in words” value (TCR 6) was “not TCR 6”.
In the case of VMAPRTPIL, the “Peptide binding affinity for HLA-E*01:03 (signal to positive, S/P, ratio), in words” value (HLA-E*01:03; [7]) was “strong binders (The S/P thresholds to define binders or strong binders are 0.08 and 0.18, respectively)”.
